# Source: patent publication US12479847B2 (DANA-FARBER CANCER INSTITUTE, INC., priority 2019, dated 2025)
# Legend:
# panel of 468 kinases [1] = biological target: T1, panel of 468 kinases (Homo sapiens, UniProt P54753); experiment: KINOMEscan (ScanMAX) kinase profiling; type: binding; conditions: EPHB3; 1 μM; read-out: % control
# T1 construct: purchased KINOMEscan (ScanMAX) service
# T1 sequence (P54753 34-998): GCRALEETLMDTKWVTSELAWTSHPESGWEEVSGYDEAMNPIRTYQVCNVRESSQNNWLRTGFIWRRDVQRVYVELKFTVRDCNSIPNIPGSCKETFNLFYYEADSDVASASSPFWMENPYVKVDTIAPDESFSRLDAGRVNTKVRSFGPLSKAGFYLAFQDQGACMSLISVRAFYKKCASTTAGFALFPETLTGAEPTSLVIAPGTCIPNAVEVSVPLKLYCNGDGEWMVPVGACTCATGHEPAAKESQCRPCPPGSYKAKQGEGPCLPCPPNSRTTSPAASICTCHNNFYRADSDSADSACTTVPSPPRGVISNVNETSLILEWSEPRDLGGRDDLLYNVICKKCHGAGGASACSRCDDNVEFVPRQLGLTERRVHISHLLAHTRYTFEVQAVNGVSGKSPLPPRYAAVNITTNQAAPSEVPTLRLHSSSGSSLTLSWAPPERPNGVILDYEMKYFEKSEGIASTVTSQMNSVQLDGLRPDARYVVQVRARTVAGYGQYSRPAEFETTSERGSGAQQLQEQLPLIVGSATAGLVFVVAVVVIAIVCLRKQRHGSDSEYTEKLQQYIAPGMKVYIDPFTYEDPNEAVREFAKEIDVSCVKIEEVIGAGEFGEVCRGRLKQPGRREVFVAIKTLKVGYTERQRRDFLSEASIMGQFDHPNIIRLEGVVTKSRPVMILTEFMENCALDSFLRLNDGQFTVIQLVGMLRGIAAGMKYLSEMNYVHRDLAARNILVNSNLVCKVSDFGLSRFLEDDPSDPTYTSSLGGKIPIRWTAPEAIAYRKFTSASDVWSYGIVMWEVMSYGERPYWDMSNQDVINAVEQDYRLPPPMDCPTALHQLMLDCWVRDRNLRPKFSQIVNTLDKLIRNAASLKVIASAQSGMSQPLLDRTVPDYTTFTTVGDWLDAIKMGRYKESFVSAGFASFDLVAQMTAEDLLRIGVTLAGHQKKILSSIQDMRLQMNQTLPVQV
# panel of 468 kinases [2] = biological target: T2, panel of 468 kinases (Homo sapiens, UniProt P36888, D835H); experiment: KINOMEscan (ScanMAX) kinase profiling; type: binding; conditions: FLT3(D835H); 1 μM; read-out: % control
# T2 construct: purchased KINOMEscan (ScanMAX) service
# T2 sequence (P36888 27-993 D835H): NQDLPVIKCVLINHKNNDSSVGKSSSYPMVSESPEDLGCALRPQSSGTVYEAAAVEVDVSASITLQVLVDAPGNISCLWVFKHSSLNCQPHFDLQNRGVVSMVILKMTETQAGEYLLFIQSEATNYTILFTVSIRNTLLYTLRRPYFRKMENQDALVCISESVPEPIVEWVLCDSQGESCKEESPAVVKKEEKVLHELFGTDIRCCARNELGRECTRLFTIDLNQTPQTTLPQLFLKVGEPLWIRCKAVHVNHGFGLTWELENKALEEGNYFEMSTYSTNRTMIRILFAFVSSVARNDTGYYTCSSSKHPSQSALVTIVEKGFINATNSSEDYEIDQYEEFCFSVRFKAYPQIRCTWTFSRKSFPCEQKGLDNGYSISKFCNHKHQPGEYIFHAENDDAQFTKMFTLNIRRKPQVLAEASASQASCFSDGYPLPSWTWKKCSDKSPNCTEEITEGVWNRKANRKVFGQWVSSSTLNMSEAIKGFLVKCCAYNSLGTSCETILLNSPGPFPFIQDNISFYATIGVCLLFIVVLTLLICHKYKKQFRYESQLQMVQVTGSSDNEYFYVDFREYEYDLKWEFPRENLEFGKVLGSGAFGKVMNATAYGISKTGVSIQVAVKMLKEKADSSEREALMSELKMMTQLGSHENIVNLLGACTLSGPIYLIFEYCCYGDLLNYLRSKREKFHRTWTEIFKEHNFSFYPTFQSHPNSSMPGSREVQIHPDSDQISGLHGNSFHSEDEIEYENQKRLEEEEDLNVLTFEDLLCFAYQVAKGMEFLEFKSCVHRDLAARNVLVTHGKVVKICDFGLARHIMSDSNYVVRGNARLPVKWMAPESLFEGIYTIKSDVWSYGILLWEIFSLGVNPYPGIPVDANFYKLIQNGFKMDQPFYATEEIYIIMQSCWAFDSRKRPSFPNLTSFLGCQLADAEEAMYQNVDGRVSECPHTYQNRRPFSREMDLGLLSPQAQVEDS
Compound,remaining binding at 1 µM (panel of 468 kinases [1]) [%],remaining binding at 1 µM (panel of 468 kinases [2]) [%]
"CNc1nc(Nc2ccc(C(=O)N3CCC(N4CCOCC4)CC3)c3c2OCO3)nc2[nH]cc(Cl)c12 [Compound 75, (7-((5-chloro-4-(methylamino)-7H-pyrrolo[2,3-d]pyrimidin-2-yl)amino)benzo[d][1,3]dioxol-4-yl)(4-morpholinopiperidin-1-yl)methanone]",100,37
"CNc1nc(Nc2ccc(S(=O)(=O)N3CCC(N4CCOCC4)CC3)cc2OC)nc2[nH]cc(Cl)c12 [Compound 12, 5-chloro-N2-(2-methoxy-4-((4-morpholinopiperidin-1-yl)sulfonyl)phenyl)-N4-methyl-7H-pyrrolo[2,3-d]pyrimidine-2,4-diamine]",100,100
"CNc1nc(Nc2ccc(P3(=O)CCN(C4CCOCC4)CC3)cc2OC)nc2[nH]cc(Cl)c12 [Compound 77, 4-(4-((5-chloro-4-(methylamino)-7H-pyrrolo[2,3-d]pyrimidin-2-yl)amino)-3-methoxyphenyl)-1-(tetrahydro-2H-pyran-4-yl)-1,4-azaphosphinane 4-oxide]",100,84
